From US7253295B2, “Chloride channel opener” (Sucampo AG, priority 2001, dated 2007)

Columns and labels:
[1] = biological target: T1, recombinant hClC-2 chloride channel (Homo sapiens, UniProt P51788); assay: Whole cell patch clamp, HEK cells transfected with hClC-2 (Test Example 1); type: cell-based; settings: for Effect on Cl currents in HEK cells transfected with hClC-2 (in words): 1 μM; for Cl channel activity: 1 μM in 1% DMSO, HEK cells transfected with hClC-2
T1 construct: His; T7; expressed in transfected cells; host or cells: HEK-293 (ATCC), pcDNA3.1, G-418 selected
T1 sequence (P51788 1-898): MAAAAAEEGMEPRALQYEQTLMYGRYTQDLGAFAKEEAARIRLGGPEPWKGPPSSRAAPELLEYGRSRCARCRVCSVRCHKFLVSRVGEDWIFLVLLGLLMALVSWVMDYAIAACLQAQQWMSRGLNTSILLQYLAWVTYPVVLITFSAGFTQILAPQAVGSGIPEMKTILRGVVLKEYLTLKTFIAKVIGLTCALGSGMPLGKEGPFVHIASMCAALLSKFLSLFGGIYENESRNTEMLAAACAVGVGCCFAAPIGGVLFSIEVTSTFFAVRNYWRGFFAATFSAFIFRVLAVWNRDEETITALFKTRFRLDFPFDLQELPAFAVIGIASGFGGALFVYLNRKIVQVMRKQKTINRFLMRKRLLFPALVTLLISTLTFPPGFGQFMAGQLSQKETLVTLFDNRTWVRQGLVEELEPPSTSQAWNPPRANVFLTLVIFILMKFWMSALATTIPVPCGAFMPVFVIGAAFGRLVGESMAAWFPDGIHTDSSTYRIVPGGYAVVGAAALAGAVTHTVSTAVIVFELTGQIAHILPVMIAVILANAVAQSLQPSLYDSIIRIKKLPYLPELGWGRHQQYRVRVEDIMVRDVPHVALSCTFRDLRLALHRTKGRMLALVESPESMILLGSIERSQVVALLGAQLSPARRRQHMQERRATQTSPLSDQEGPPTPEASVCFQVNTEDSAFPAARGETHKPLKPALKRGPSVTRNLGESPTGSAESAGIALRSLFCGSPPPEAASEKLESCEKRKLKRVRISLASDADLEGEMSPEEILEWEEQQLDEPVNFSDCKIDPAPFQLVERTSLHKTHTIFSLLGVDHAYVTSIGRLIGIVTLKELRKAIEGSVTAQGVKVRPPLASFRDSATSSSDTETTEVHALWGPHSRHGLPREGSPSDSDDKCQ
Excerpt: (§1) Whole cell patch clamp method was used to assess the effect of compound 1 (13,14-dihydro-15-keto-16,16-difluoro-PGE1) and compound 2 (13,14-dihydro-15-keto-16,16-difluoro-18 (S)-methyl-PGE1) on recombinant hClC-2 chloride channel. In this example, effects of the respective compounds on Human Epithelial Kidney (HEK) cells transfected with human ClC-2 (hClC-2) were examined, and the results were compared with those on non-transfected HEK cells.
(§2) ClC-2 transfected human epithelial kidney (HEK) cells were prepared and used. HEK-293 cells obtained from American Type Culture Collection (ATCC; Manassas, Va.) were transfected with His- and T7-tagged human ClC-2 cDNA in the mammalian expression vector pcDNA3.1 (GIBCO/Invitrogen) using Lipofectamine (GIBCO/Invitrogen) for 5 h at 37° C. in serum-free medium. Cells were then resuspended in the serum-containing medium and cultured in the presence of 300 μg/ml G-418 (GIBCO/Invitrogen). The surviving cells were then expanded, tested to confirm expression of Cl- current and ClC-2 mRNA, and the cells expressing ClC-2 mRNA were frozen to store. Upon studies, the stored cells were thawed and maintained at 37° C. in 5%/95% CO2/O2 in MEM (GIBCO/Invitrogen) supplemented with 5% inactivated horse serum, 0.1 mM nonessential amino acids, 2 mM L-glutamine, 1 mM sodium pyruvate, 100 units/ml penicillin, and 100 μg/ml streptomycin sulfate.
(§3) In the whole cell patch clamp measurements, currents were elicited by voltage clamp pulses (1500 ms duration) between +40 mV and −140 mV, in 20 mV increments, from the beginning holding potential of −30 mV. Currents were measured 50-100 ms after start of the pulse. The external solution was normal Tyrode solution containing 135 mM NaCl, 1.8 mM CaCl2, 1 mM MgCl2, 5.4 mM KCl, 10 mM glucose, and 10 mM HEPES (pH 7.35). The pipette solution was 130 mM CsCl, 1 mM MgCl2, 5 mM EGTA, and 10 mM HEPES (pH 7.35); also present in the pipette was 1 mM ATP—Mg^2+ (pH 7.4).
(§4) Pipettes were prepared from borosilicate glass and pulled by a two stage Narashige puller to give 1-1.5 MΩ resistance. Data were acquired with Axopatch CV-4 headstage with Digidata 1200 digitizer and Axopatch 1D amplifier. Data were analyzed using pClamp 6.04 (Axon Instruments, Foster City, Calif.), Lotus 123 (IBM) and Origin (Microcal) software.
(§5) Compound 1 and compound 2 were used at a final concentration of 1 μM in 1% DMSO.

[2] = tested on: non-transfected HEK cells; assay: Whole cell patch clamp, non-transfected HEK cells (Test Example 1); type: cell-based, human; settings: for Effect on Cl currents in non-transfected cells (in words): 1 μM; for Cl channel activity: 1 μM in 1% DMSO, non-transfected HEK cells
Excerpt: as §1, §2, §3, §4, §5

AS-HBE cells = assay: Short-circuit current in AS-HBE cells (Test Example 3); type: cell-based, human; settings: 250 nM
Protocol: AS-HBE is a human bronchial epithelial (HBE) cell line expressing the first 131 nucleotides of CFTR in the antisense direction (antisense CFTR 16HBE14o- cells, HBE-AS; also called AS-HBE). As a result, AS-HBE cells lack CFTR transcripts and lack functional CFTR. However, AS-HBE cells do express functional ClC-2 in a manner identical to the parental cell line, 16HBE14o- cells, from which they were derived. AS-HBE cells were maintained at 37° C. in 5%/95% CO2/O2 in Minimal Essential Medium (MEM; GIBCO/Invitrogen, Carlsbad, Calif.) supplemented with Earl's salt, L-glutamine (GIBCO/Invitrogen), 10% heat-inactivated fetal bovine serum, 100 units/ml penicillin, 100 μg/ml streptomycin sulfate and 400 μg/ml G-418 (GIBCO/Invitrogen). The cells were grown in air-liquid interface on Biocoat inserts (Fisher Scientific, Chicago, Ill.), coated with human plasma fibronectine (GIBCO/Invitrogen) and vitrogen (Cohesion Technologies, Palo Alto, Calif.).
According to the same manner as described in Example 2, Short-circuit current measurements in the AS-HBE cells were carried out. Changes in short-circuit current (ΔIsc) were normalized to the filter area (0.3 cm^2) and reported as ΔIsc/cm^2.
Test compounds were used at a final concentration of 250 nM.

[3] = biological target: T2, recombinant human ClC-2 Chloride Channels (Homo sapiens, UniProt P51788); assay: Whole cell patch clamp, ClC-2 transfected HEK cells, current increase (Test Example 4); type: cell-based; settings: 100 nM, change from control
T2 construct: His; T7; expressed in transfected cells; host or cells: HEK-293 (ATCC), pcDNA3.1, G-418 selected
T2 sequence (P51788 1-898): T1 sequence (P51788 1-898)
Protocol: According to the same manner as described in Example 1, whole cell patch clamp measurements were carried out.
Test compounds were used at a final concentration of 100 nM.

Row | Compound | Effect on Cl currents in HEK cells transfected with hClC-2 (in words) [1] | Cl channel activity [1] | Effect on Cl currents in non-transfected cells (in words) [2] | Cl channel activity [2] | Changes in short-circuit currents (Δlsc) (AS-HBE cells) | Activation of ClC-2 channels ΔpA/pF [3]
1 | CCCCC(F)(F)[C@@]1(O)CC[C@H]2[C@@H](CC(=O)[C@@H]2CCCCCCC(=O)O)O1 [Compound 1, (−)-7-[(2R,4aR,5R,7aR)-2-(1,1-difluoropentyl)-2-hydroxy-6-oxoperhydrocyclopenta[b]pyran-5-yl]heptanoic acid] | activated | 1.820 ± 0.114 nS/pF | did not increase | 0.035 ± 0.014 nS/pF | 4.3 μA/cm^2 | 39.8 pA/pF
2 | CC[C@H](C)CC(F)(F)C(=O)CC[C@H]1[C@H](O)CC(=O)[C@@H]1CCCCCCC(=O)O [Compound 2, 13,14-dihydro-15-keto-16,16-difluoro-18(S)-Methyl-PGE1] | activated | 0.558 ± 0.100 nS/pF | did not increase | 0.036 ± 0.010 nS/pF | 9.0 μA/cm^2 | 22.6 pA/pF
